Columns and labels:
hippocampus LTP = details: 22-month-old rats, arachidonic acid diet 10 mg/rat/day for 8 weeks; versus 4-month-old young rats; cited from earlier work
old male Fischer rats = assay: Probe test after Morris water maze learning (time in quadrant where escape platform used to be); type: in vivo, rat; details: for time spent in the quadrant (¼) where the escape platform used to be, mean±standard deviation: old rats 21 months
Procedure: A Morris water maze learning test was conducted around the third month of the experiment (age of old rats: 21 months, age of young rats: 7 months). The Morris water maze test is a learning test based on spatial recognition in which water stained black with ink is filled (height of water level: 20 cm) into a water tank (diameter: 120 cm, height: 35 cm), a rat is placed on an escape platform of a size (diameter: 11.5 cm, height: 19 cm) that is just large enough for the rat to stand on (the escape platform is located beneath the surface of the water and cannot be seen by rats swimming in the water tank), the rat on which the learning test is to be performed is placed in the water tank at a predetermined location in the tank (starting point), and then forced to swim to the escape platform. This test is recognized to have a correlation with the hippocampus that governs memory, and is widely used in the US and Europe. As the test is repeated, the rats learn the location of the escape platform. The rats were allowed to learn using the method described below. Namely, after releasing a rat from the starting point of the Morris water maze test apparatus, if the rat was unable to reach the escape platform within 60 seconds, the rat was placed on the escape platform, thereby enabling it to learn the location of the unseen escape platform. This learning process was continued for 2 weeks no more than twice a day. The percentage of the amount of time required to swim from the starting point to the escape platform within an angular deviation range of ±15° to the total swimming time (Hit %, see FIG. 2) was used as an indicator of learning. […] In FIG. 3, each graduation on the scale of the horizontal axis represents four trials, or two days worth of testing.
Next, in order to determine the degree of learning acquisition, a probe test was conducted on the day after two weeks of the aforementioned learning, namely on day 15. If the escape platform is taken away after the rats have acquired learning, the rats swim around at the location where the escape platform used to be. The time during which the rats swim around at the former location of the escape platform based on the memory of where it used to be (evaluated by dividing the water tank into four quadrants and evaluated as the amount of time (seconds) spent in the quadrant where the escape platform used to be) can used to evaluate the degree of learning acquisition. The paths swam by the No. 1 and No. 2 rats of the YC group, OA group and OC group are shown (FIG. 4). Furthermore, as the rats were allowed to learn by changing the starting points for individual rats, the starting point (S) and quadrant where the escape platform used to be in FIG. 4 differ according to individual rats. […]

SMILES	hippocampus LTP levels (hippocampus LTP)	absorption (old male Fischer rats; Example 4, inferred from the probe test at the same ingested amount of arachidonic acid)	time spent in the quadrant (¼) where the escape platform used to be, mean±standard deviation (old male Fischer rats; Example 4, 40 mg arachidonic acid/rat/day, group OA 6 animals, group 8A8 8 animals)	degree of learning acquisition (old male Fischer rats; Example 4, old rats, comparison between TGA40S and 8A8 and with young rats)	time spent in the quadrant (¼) where the escape platform used to be, mean±standard deviation (old male Fischer rats; Example 5, arachidonic acid per rat per day: 8A8 diet 40 g (so in the source), 8A8-containing oil or fat diet 13.2 mg)
CCCCC/C=C\C/C=C\C/C=C\C/C=C\CCCC(=O)O [arachidonic acid]	recovery to the level of young rats	–	–	–	–
CCCCC/C=C\C/C=C\C/C=C\C/C=C\CCCC(=O)OC(COC(=O)CCCCCCC)COC(=O)CCCCCCC [8A8, 1,3-capryloyl-2-arachidonoyl-glycerol]	–	more easily absorbed than TGA40S	27.18 ± 5.10 s	tended to result in a higher degree of learning acquisition	27.00 ± 4.65 s
